In one data set the test system is human PBMC. As to the kind of experiment: Identification and quantification of released payload in human PBMC (MS). The class given is in vitro ADME. The following applies: 4h, second study. As to the method:
In all the following experiments, human PBMC, isolated from 1 healthy donor per study, were treated with exemplary anti-VISTA glucocorticoid conjugates according to the invention to allow identification and quantification of the released payload.
In the present experiments, after incubating PBMC with glucocorticoid (GC) antibody drug conjugates (ADC) for 4h, cells were harvested and assessed for both FKBP5 transcription induction via quantitative real time PCR (qPCR) as well as assessed via mass spectrometry (MS) for released payload identification and quantification.
Isolated PBMCs were resuspended in RPMI 1640 containing 10% human AB serum, 10 mM Hepes, 1× Penicillin/Streptomycin/L-Glutamine (assay media).
PBMCs from 1 donor were washed 2× in PBS, and then resuspended at 1×10^7/mL in media. […]
Remaining cells for each treatment were dived into aliquots representing 50 million cells per aliquot (for metabolite quantification only one aliquot per condition was generated). […]
Media was removed from each cell pellet with the media then set aside at −80C until it could be assessed for the concentration of effluxed payload. […]
Briefly, pre-chilled 70% ACN (extraction buffer) was added to the PBMC pellets for extraction. […] was injected onto the LCMS (Luna C18 (2) column, Thermo Scientific Q Exactive Hybrid Quadrupole Orbitrap) and resulting masses assessed. […]

Another data set deals with FKBP5. The experiment in a line: FKBP5 transcription in peritoneal resident macrophages (PRM) and spleen cells after in vivo treatment. Particulars: linker payloads as anti-VISTA conjugates. The arrangement: species or system hVISTA mice.
Data set [1] deals with peritoneal resident macrophages (PRM). The experiment in a line: In vivo treatment/ex vivo PRM activation, TNFα and IL-6 in supernatant. The arrangement: species or system hVISTA mice.
Setting [2] is: linker/payloads as anti-VISTA conjugates.

Each structure is given as a SMILES string.

Take `C[C@]12C=CC(=O)C=C1CC[C@@H]1[C@@H]2[C@@H](O)C[C@@]2(C)[C@H]1C[C@H]1O[C@@H](c3ccc(CC4CC5(C4)CC(NC(=O)[C@H](CCC(=O)O)NC(=O)CNC(=O)CBr)C5)cc3)O[C@]12C(=O)CO` (stereo partly drawn) [INX V, (S)-4-(2-(2-bromoacetamido)acetamido)-5-((6-(4-((6aR,6bS,7S,8aS,8bS,10R,11aR,12aS,12bS)-7-hydroxy-8b-(2-hydroxyacetyl)-6a,8a-dimethyl-4-oxo-2,4,6a,6b,7,8,8a,8b,11a,12,12a,12b-dodecahydro-1H-naphtho[2′,1′:4,5]indeno[1,2-d][1,3]dioxol-10-yl)benzyl)spiro[3.3]heptan-2-yl)amino)-5-oxopentanoic acid]: in the data set with human PBMC, the “released payload relative to INX P / INX231P (ng/ng)” value was found to be 235 x. Moreover, in the data set on FKBP5, the “FKBP5 induction when dosed 14 days early (conclusions)” value was “still display significant potency when dosed 14 days early in regard to FKBP5 induction”. In addition, the “preventing ex vivo induction of TNFα and IL-6 in PRM” value in data set [1] (Experiment 9: linker payloads as conjugates, 7 days post 0.2 mg/Kg of GC payload, supernatant 24h) is “remarkable long-term potency in controlling cytokine responses”. Also, in data set [1] (setting [2]), the “controlling cytokine response in PRM when dosed 14 days early (conclusions)” value is “significant potency in controlling cytokine response in PRM when dosed 14 days early”; the “potency in PRM cytokine model when dosed 7 days early (conclusions)” value is “remarkably more potent than payloads INX P and INX R when dosed 7 days early”.
